Results: ChEMBL document CHEMBL4823263, “Discovery of 2-(3-(3-Carbamoylpiperidin-1-yl)phenoxy)acetic Acid Derivatives as Novel Small-Molecule Inhibitors of the β-Catenin/B-Cell Lymphoma 9 Protein-Protein Interaction” (J Med Chem, 2021)

What was measured:
[1] = tested on: SW480; experiment: Inhibition of Wnt/beta-catenin transactivation signalling in human SW480 cells harboring mutant tcf4 binding sites assessed as relative activity at 12.5 uM incubated for 24 hrs by FOPFlash luciferase assay relative to control; assay type: cell-based; design: scale not given: the % may be the effect or the level left
[2] = Downregulation of HPRT level in human SW480 cells at 10 uM incubated for […] by quantitative real-time PCR analysis relative to control; assay type: ADME, cell-based; details: sw480, 10 µM
[3] = biological target: Protein Wnt-3a (Mus musculus) (UniProt P27467); experiment: Inhibition of mouse wnt3a expressed in human MDA-MB-231 cells assessed as Axin2 level at 30 uM incubated for […] by quantitative real-time PCR analysis relative to control; assay type: cell-based; design: scale not given: the % may be the effect or the level left
[4] = biological target: Protein Wnt-3a (Mus musculus) (UniProt P27467); experiment: Inhibition of mouse wnt3a expressed in human MDA-MB-231 cells assessed as Axin2 level at 10 uM incubated for […] by quantitative real-time PCR analysis relative to control; assay type: cell-based; design: scale not given: the % may be the effect or the level left
[5] = biological target: Protein Wnt-3a (Mus musculus) (UniProt P27467); experiment: Inhibition of mouse wnt3a expressed in human MDA-MB-231 cells assessed as cyclin D1 level at 30 uM incubated for […] by quantitative real-time PCR analysis relative to control; assay type: cell-based; design: scale not given: the % may be the effect or the level left
[6] = biological target: Protein Wnt-3a (Homo sapiens) (UniProt P56704); experiment: Inhibition of Wnt3a in human SW480 cells assessed as Axin2 level at 10 uM incubated for […] by quantitative real-time PCR analysis relative to control; assay type: cell-based; design: scale not given: the % may be the effect or the level left
[7] = biological target: Protein Wnt-3a (Homo sapiens) (UniProt P56704); experiment: Inhibition of Wnt3a in human SW480 cells assessed as cyclin D1 level at 3.3 uM incubated for […] by quantitative real-time PCR analysis relative to control; assay type: cell-based; design: scale not given: the % may be the effect or the level left
[8] = biological target: Protein Wnt-3a (Mus musculus) (UniProt P27467); experiment: Inhibition of mouse wnt3a expressed in human MDA-MB-231 cells assessed as HPRT level at 30 uM incubated for […] by quantitative real-time PCR analysis relative to control; assay type: cell-based; design: scale not given: the % may be the effect or the level left
[9] = tested on: SW480; experiment: Antiproliferative activity against human SW480 cells harboring beta-catenin pcDNA3.1 vector incubated for 72 hrs by MTS assay; assay type: functional, cell-based; details: SW480, 72 h
[10] = biological target: beta-catenin-B-cell lymphoma 9 protein complex (Homo sapiens) (UniProt P35222+O00512); experiment: Disruption of beta-catenin/N-terminal biotinylated human BCL9 HD2 (350 to 375 residues) protein-protein interaction in human SW480 cells incubated for 1 hr followed by N-terminal biotinylated human BCL9 HD2 addition and measured after 2 hrs by pull-down assay; assay type: cell-based; details: time 3.0 hrs
[11] = tested on: HCT-116; experiment: Antiproliferative activity against human HCT116 cells incubated for 72 hrs by MTS assay; assay type: functional, cell-based; details: HCT-116, 72 h
[12] = tested on: SW480; experiment: Antiproliferative activity against human SW480 cells incubated for 72 hrs by MTS assay; assay type: functional, cell-based; details: SW480, 72 h
[13] = biological target: Protein Wnt-3a (Mus musculus) (UniProt P27467); experiment: Inhibition of mouse wnt3a expressed in human MDA-MB-231 cells assessed as LEF1 level at 3.3 uM incubated for […] by quantitative real-time PCR analysis relative to control; assay type: cell-based; design: scale not given: the % may be the effect or the level left
[14] = tested on: MDA-MB-468; experiment: Antiproliferative activity against human MDA-MB-468 cells incubated for 72 hrs by MTS assay; assay type: functional, cell-based; details: MDA-MB-468, 72 h
[15] = biological target: Protein Wnt-3a (Mus musculus) (UniProt P27467); experiment: Inhibition of mouse wnt3a expressed in human MDA-MB-231 cells assessed as cyclin D1 level at 10 uM incubated for […] by quantitative real-time PCR analysis relative to control; assay type: cell-based; design: scale not given: the % may be the effect or the level left
[16] = (§1) Inhibition of Wnt/beta-catenin transactivation signalling in human SW480 cells harboring wild type tcf4 binding sites incubated for 24 hrs by TOPFlash luciferase assay; assay type: cell-based
[17] = tested on: SW480; experiment: as §1; assay type: cell-based
[18] = biological target: Protein Wnt-3a (Homo sapiens) (UniProt P56704); experiment: Inhibition of Wnt3a in human SW480 cells assessed as Axin2 level at 3.3 uM incubated for […] by quantitative real-time PCR analysis relative to control; assay type: cell-based; design: scale not given: the % may be the effect or the level left
[19] = Downregulation of HPRT level in human SW480 cells at 30 uM incubated for […] by quantitative real-time PCR analysis relative to control; assay type: ADME, cell-based; details: sw480, 30 µM
[20] = tested on: SW480; experiment: Inhibition of Wnt signalling in human SW480 cells assessed as reduction in Axin2 expression incubated for 24 hrs by Western blot analysis; assay type: cell-based
[21] = biological target: Protein Wnt-3a (Homo sapiens) (UniProt P56704); experiment: Inhibition of Wnt3a in human SW480 cells assessed as cyclin D1 level at 10 uM incubated for […] by quantitative real-time PCR analysis relative to control; assay type: cell-based; design: scale not given: the % may be the effect or the level left
[22] = biological target: Protein Wnt-3a (Homo sapiens) (UniProt P56704); experiment: Inhibition of Wnt3a in human SW480 cells assessed as LEF1 level at 30 uM incubated for […] by quantitative real-time PCR analysis relative to control; assay type: cell-based; design: scale not given: the % may be the effect or the level left
[23] = Downregulation of HPRT in human MDA-MB-231 cells assessed as HPRT level at 3.3 uM incubated for […] by quantitative real-time PCR analysis relative to control; assay type: ADME, cell-based; details: mda-mb-231, 3.3 µM
[24] = biological target: Protein Wnt-3a (Mus musculus) (UniProt P27467); experiment: Inhibition of mouse wnt3a expressed in human MDA-MB-231 cells assessed as LEF1 level at 30 uM incubated for […] by quantitative real-time PCR analysis relative to control; assay type: cell-based; design: scale not given: the % may be the effect or the level left

Chain of Protein Wnt-3a (Mus musculus) (P27467 whole entry): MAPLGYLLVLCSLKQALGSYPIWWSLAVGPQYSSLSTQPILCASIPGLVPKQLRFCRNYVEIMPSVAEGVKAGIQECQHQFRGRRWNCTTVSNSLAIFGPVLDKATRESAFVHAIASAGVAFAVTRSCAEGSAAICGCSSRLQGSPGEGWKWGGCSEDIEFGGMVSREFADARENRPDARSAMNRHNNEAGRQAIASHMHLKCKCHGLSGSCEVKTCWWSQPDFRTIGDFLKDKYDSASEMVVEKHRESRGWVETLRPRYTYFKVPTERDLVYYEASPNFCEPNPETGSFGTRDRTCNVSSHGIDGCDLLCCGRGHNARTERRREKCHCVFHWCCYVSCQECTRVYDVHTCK
Chain of Protein Wnt-3a (Homo sapiens) (P56704 whole entry): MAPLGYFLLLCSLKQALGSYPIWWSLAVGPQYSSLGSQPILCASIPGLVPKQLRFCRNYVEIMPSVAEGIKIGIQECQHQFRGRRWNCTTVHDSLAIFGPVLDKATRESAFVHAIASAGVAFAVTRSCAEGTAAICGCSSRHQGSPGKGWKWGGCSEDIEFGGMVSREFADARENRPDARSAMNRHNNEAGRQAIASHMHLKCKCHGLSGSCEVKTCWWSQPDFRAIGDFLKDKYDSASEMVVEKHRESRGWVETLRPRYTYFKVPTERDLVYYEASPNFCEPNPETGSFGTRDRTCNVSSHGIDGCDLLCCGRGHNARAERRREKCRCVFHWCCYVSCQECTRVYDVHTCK

For CC(C)(Oc1cccc(N2CCC[C@H](C(=O)N(Cc3ccc(-c4cccs4)cc3)C3CC3)C2)c1)C(=O)NS(=O)(=O)c1ccc(C#N)cc1, the Activity [1] was 102%, the Activity [2] was 102% and the Activity [3] was 50%. For the same compound, the Activity [4] was 57%, the Activity [5] was 66% and the Activity [6] was 72%. The Activity [7] was 53%, the Activity [8] was 99% and the IC50 [9] was 86 µM. For the same compound, the Activity [10] was “Dose-Dependent Effect”, the IC50 [11] was 29.6 µM and the IC50 [12] was 16.3 µM. It also gave an Activity [13] of 87%, an IC50 [14] of 17.8 µM and an Activity [15] of 77%. For the same compound, the IC50 [16] was 6.6 µM, the Activity [17] was “Dose-Dependent Effect” and the Activity [18] was 99%. The Activity [19] was 99%, the Activity [20] was “Dose-Dependent Effect” and the Activity [21] was 40%. For the same compound, the Activity [22] was 76%, the Activity [23] was 102% and the Activity [24] was 76%.
